Results as given in ChEMBL document CHEMBL1221377, “SAR development of a series of 8-azabicyclo[3.2.1]octan-3-yloxy-benzamides as kappa opioid receptor antagonists. Part 2” (Bioorg Med Chem Lett, 2010).

Tests used:
Rattus norvegicus = test: Clearance in Sprague-Dawley rat plasma at 2 umol/kg, iv; type: ADME, organism-based; details: in vivo
[1] = Apparent permeability from apical to basolateral side of MDCK cells expressing MDR1; type: ADME, cell-based, Canis lupus familiaris; details: dog
[2] = Intrinsic clearance in human liver microsomes; type: ADME, Microsome
[3] = Intrinsic clearance in rat liver microsomes; type: ADME, Microsome
[4] = Half life in Sprague-Dawley rat at 2 umol/kg, iv; type: ADME, organism-based; details: in vivo
[5] = Volume of distribution at steady state in Sprague-Dawley rat at 2 umol/kg, iv; type: ADME, organism-based; details: in vivo, read-out: Vdss
[6] = Ratio of drug level brain to plasma in Sprague-Dawley rat at 2 umol/kg, iv; type: ADME; details: brain and plasma, read-out: BPR
[7] = Oral bioavailability in Sprague-Dawley rat at 2 umol/kg; type: ADME, organism-based; details: in vivo
[8] = Ratio of drug level brain to plasma in Sprague-Dawley rat at 5 umol/kg, iv; type: ADME; details: brain and plasma, read-out: BPR

| Structure (SMILES) | CL (Rattus norvegicus) [µL/min/mg] | Papp A→B [1] [×10⁻⁶ cm/s] | microsomal CLint [2] [µL/min/mg] | microsomal CLint [3] [µL/min/mg] | half-life [4] [h] | Vd [5] [L/kg] | Kp [6] | bioavailability [7] [%] | Kp [8] |
| --- | --- | --- | --- | --- | --- | --- | --- | --- | --- |
| NC(=O)c1cccc(C[C@H]2C[C@H]3CC[C@@H](C2)N3Cc2ccccc2)c1 | 124 | 14 | < 4 | 65 | 1.3 | 6.6 | 1.9 | 5 |  |
| CN(C)C(=O)N[C@H]1CC[C@@H](CCN2[C@@H]3CC[C@H]2C[C@@H](Oc2cccc(C(N)=O)c2)C3)CC1 |  | 1.9 | < 4 | 30 |  |  |  |  | 0.22 |
